Test: Stability of (Z)-Endoxifen in acetone (HPLC peak table over time)
Format: physicochemical
Details: for E-form, RT 14.58, RRT 0.96 / HPLC peak RT 13.84, RRT 0.91 / HPLC peak RT 20.32, RRT 1.34 / HPLC peak RT 20.51, RRT 1.35 / HPLC peak RT 21.68, RRT 1.43 / HPLC peak RT 22.88, RRT 1.51 / HPLC peak RT 27.15, RRT 1.79 / HPLC peak RT 27.21, RRT 1.80 / HPLC peak RT 27.45, RRT 1.81 / HPLC peak RT 27.88, RRT 1.84 / HPLC peak RT 4.37, RRT 0.28 / Z-form, RT 15.13, RRT 1.00: acetone at reflux (56° C.); for HPLC peak RT 4.37, RRT 0.28 / Z-form, RT 15.13, RRT 1.00 / Z-form, RT 16.25, RRT 1.00: in % (unit assumed); for E-form, RT 15.40, RRT 0.95 / HPLC peak RT 3.14, RRT 0.19 / HPLC peak RT 4.25, RRT 0.26 / HPLC peak RT 14.68, RRT 0.90 / HPLC peak RT 17.69, RRT 1.09 / HPLC peak RT 20.47, RRT 1.26 / HPLC peak RT 20.80, RRT 1.28 / HPLC peak RT 21.56, RRT 1.33 / HPLC peak RT 21.83, RRT 1.34 / HPLC peak RT 22.68, RRT 1.39 / HPLC peak RT 22.76, RRT 1.40 / Z-form, RT 16.25, RRT 1.00: acetone, 40° C.

E-form, RT 14.58, RRT 0.96 (3 hr): 0.54% | HPLC peak RT 13.84, RRT 0.91 (3 hr): 0.05% | HPLC peak RT 20.32, RRT 1.34 (3 hr): 0.37% | HPLC peak RT 20.51, RRT 1.35 (3 hr): 0.06% | HPLC peak RT 21.68, RRT 1.43 (3 hr): 0.16% | HPLC peak RT 22.88, RRT 1.51 (3 hr): 0.13% | HPLC peak RT 27.15, RRT 1.79 (3 hr): 0.03% | HPLC peak RT 27.21, RRT 1.80 (3 hr): 0.05% | HPLC peak RT 27.45, RRT 1.81 (3 hr): 0.24% | HPLC peak RT 27.88, RRT 1.84 (3 hr): 0.04% | HPLC peak RT 4.37, RRT 0.28 (3 hr): 0.96 | Z-form, RT 15.13, RRT 1.00 (3 hr): 96.67 | E-form, RT 14.58, RRT 0.96 (19 hr): 1.01% | HPLC peak RT 13.84, RRT 0.91 (19 hr): 0.04% | HPLC peak RT 20.32, RRT 1.34 (19 hr): 0.12% | HPLC peak RT 20.51, RRT 1.35 (19 hr): 0.04% | HPLC peak RT 21.68, RRT 1.43 (19 hr): 0.14% | HPLC peak RT 22.88, RRT 1.51 (19 hr): 0.09% | HPLC peak RT 27.15, RRT 1.79 (19 hr): 0.02% | HPLC peak RT 27.21, RRT 1.80 (19 hr): 0.04% | HPLC peak RT 27.45, RRT 1.81 (19 hr): 0.22% | HPLC peak RT 27.88, RRT 1.84 (19 hr): 0.04% | HPLC peak RT 4.37, RRT 0.28 (19 hr): 5.74 | Z-form, RT 15.13, RRT 1.00 (19 hr): 91.92 | E-form, RT 14.58, RRT 0.96 (27 hr): 1.53% | HPLC peak RT 13.84, RRT 0.91 (27 hr): 0.04% | HPLC peak RT 20.32, RRT 1.34 (27 hr): 0.09% | HPLC peak RT 20.51, RRT 1.35 (27 hr): 0.1% | HPLC peak RT 21.68, RRT 1.43 (27 hr): 0.15% | HPLC peak RT 22.88, RRT 1.51 (27 hr): 0.06% | HPLC peak RT 27.15, RRT 1.79 (27 hr): 0.03% | HPLC peak RT 27.21, RRT 1.80 (27 hr): 0.04% | HPLC peak RT 27.45, RRT 1.81 (27 hr): 0.22% | HPLC peak RT 27.88, RRT 1.84 (27 hr): 0.04% | HPLC peak RT 4.37, RRT 0.28 (27 hr): 7.93 | Z-form, RT 15.13, RRT 1.00 (27 hr): 89.05 | E-form, RT 14.58, RRT 0.96 (43 hr): 5.33% | HPLC peak RT 13.84, RRT 0.91 (43 hr): 0.04% | HPLC peak RT 20.32, RRT 1.34 (43 hr): 0.13% | HPLC peak RT 20.51, RRT 1.35 (43 hr): 0.05% | HPLC peak RT 21.68, RRT 1.43 (43 hr): 0.13% | HPLC peak RT 22.88, RRT 1.51 (43 hr): 0.05% | HPLC peak RT 27.15, RRT 1.79 (43 hr): 0.04% | HPLC peak RT 27.21, RRT 1.80 (43 hr): 0.05% | HPLC peak RT 27.45, RRT 1.81 (43 hr): 0.15% | HPLC peak RT 27.88, RRT 1.84 (43 hr): 0.04% | HPLC peak RT 4.37, RRT 0.28 (43 hr): 12.64 | Z-form, RT 15.13, RRT 1.00 (43 hr): 80.36 | E-form, RT 14.58, RRT 0.96 (T0): 0.3% | HPLC peak RT 13.84, RRT 0.91 (T0): 0.04% | HPLC peak RT 20.32, RRT 1.34 (T0): 0.04% | HPLC peak RT 20.51, RRT 1.35 (T0): 0.12% | HPLC peak RT 21.68, RRT 1.43 (T0): 0.15% | HPLC peak RT 22.88, RRT 1.51 (T0): 0.03% | HPLC peak RT 27.15, RRT 1.79 (T0): 0.03% | HPLC peak RT 27.21, RRT 1.80 (T0): 0.05% | HPLC peak RT 27.45, RRT 1.81 (T0): 0.17% | HPLC peak RT 27.88, RRT 1.84 (T0): 0.04% | HPLC peak RT 4.37, RRT 0.28 (T0): 0.05 | Z-form, RT 15.13, RRT 1.00 (T0): 98.67 | E-form, RT 15.40, RRT 0.95 (4 hr): 0.78% | HPLC peak RT 3.14, RRT 0.19 (4 hr): 0.15% | HPLC peak RT 4.25, RRT 0.26 (4 hr): 0.57 | HPLC peak RT 14.68, RRT 0.90 (4 hr): 0.04% | HPLC peak RT 17.69, RRT 1.09 (4 hr): 0.08% | HPLC peak RT 20.47, RRT 1.26 (4 hr): 0.04 | HPLC peak RT 20.80, RRT 1.28 (4 hr): 0.15% | HPLC peak RT 21.56, RRT 1.33 (4 hr): 0.08% | HPLC peak RT 21.83, RRT 1.34 (4 hr): 0.1% | HPLC peak RT 22.68, RRT 1.39 (4 hr): 0.1% | HPLC peak RT 22.76, RRT 1.40 (4 hr): 0.08% | Z-form, RT 16.25, RRT 1.00 (4 hr): 97.28 | E-form, RT 15.40, RRT 0.95 (20 hr): 1.03% | HPLC peak RT 3.14, RRT 0.19 (20 hr): 0.11% | HPLC peak RT 4.25, RRT 0.26 (20 hr): 2.00 | HPLC peak RT 14.68, RRT 0.90 (20 hr): 0.04% | HPLC peak RT 17.69, RRT 1.09 (20 hr): 0.08% | HPLC peak RT 20.47, RRT 1.26 (20 hr): 0.05 | HPLC peak RT 20.80, RRT 1.28 (20 hr): 0.21% | HPLC peak RT 21.56, RRT 1.33 (20 hr): 0.08% | HPLC peak RT 21.83, RRT 1.34 (20 hr): 0.08% | HPLC peak RT 22.68, RRT 1.39 (20 hr): 0.09% | HPLC peak RT 22.76, RRT 1.40 (20 hr): 0.01% | Z-form, RT 16.25, RRT 1.00 (20 hr): 95.35 | E-form, RT 15.40, RRT 0.95 (24 hr): 1.14% | HPLC peak RT 3.14, RRT 0.19 (24 hr): 0.13% | HPLC peak RT 4.25, RRT 0.26 (24 hr): 2.81 | HPLC peak RT 14.68, RRT 0.90 (24 hr): 0.04% | HPLC peak RT 17.69, RRT 1.09 (24 hr): 0.09% | HPLC peak RT 20.47, RRT 1.26 (24 hr): 0.05 | HPLC peak RT 20.80, RRT 1.28 (24 hr): 0.17% | HPLC peak RT 21.56, RRT 1.33 (24 hr): 0.09% | HPLC peak RT 21.83, RRT 1.34 (24 hr): 0.01% | HPLC peak RT 22.68, RRT 1.39 (24 hr): 0.07% | HPLC peak RT 22.76, RRT 1.40 (24 hr): 0.02% | Z-form, RT 16.25, RRT 1.00 (24 hr): 94.73 | E-form, RT 15.40, RRT 0.95 (28 hr): 1.26% | HPLC peak RT 3.14, RRT 0.19 (28 hr): 0.11% | HPLC peak RT 4.25, RRT 0.26 (28 hr): 3.14 | HPLC peak RT 14.68, RRT 0.90 (28 hr): 0.04% | HPLC peak RT 17.69, RRT 1.09 (28 hr): 0.1% | HPLC peak RT 20.47, RRT 1.26 (28 hr): 0.06 | HPLC peak RT 20.80, RRT 1.28 (28 hr): 0.19% | HPLC peak RT 21.56, RRT 1.33 (28 hr): 0.09% | HPLC peak RT 21.83, RRT 1.34 (28 hr): 0.01% | HPLC peak RT 22.68, RRT 1.39 (28 hr): 0.09% | HPLC peak RT 22.76, RRT 1.40 (28 hr): 0.02% | Z-form, RT 16.25, RRT 1.00 (28 hr): 93.99 | E-form, RT 15.40, RRT 0.95 (T0): 0.65% | HPLC peak RT 3.14, RRT 0.19 (T0): 0.16% | HPLC peak RT 4.25, RRT 0.26 (T0): 0.12 | HPLC peak RT 14.68, RRT 0.90 (T0): 0.04% | HPLC peak RT 17.69, RRT 1.09 (T0): 0.08% | HPLC peak RT 20.47, RRT 1.26 (T0): 0.03 | HPLC peak RT 20.80, RRT 1.28 (T0): 0.07% | HPLC peak RT 21.56, RRT 1.33 (T0): 0.08% | HPLC peak RT 21.83, RRT 1.34 (T0): 0.07% | HPLC peak RT 22.68, RRT 1.39 (T0): 0.03% | HPLC peak RT 22.76, RRT 1.40 (T0): 0.06% | Z-form, RT 16.25, RRT 1.00 (T0): 98.28 | Stability of (Z)-endoxifen produced from methods using acetone recrystallization only (summary of TABLES 2 and 3): unstable
Compound: CC/C(=C(\c1ccc(O)cc1)c1ccc(OCCNC)cc1)c1ccccc1 [(Z)-endoxifen, (Z)-4-(1-(4-(2-(methylamino)ethoxy)phenyl)-2-phenylbut-1-enyl)phenol]
